Test results reported in patent publication US20130164226A1, “FOAMABLE AEROSOL COMPOSITION” (DAIZO CORPORATION, priority 2010, published 2013).

Experiment: Solubility of the liquefied gas in water
Type: physicochemical
Details: at 20° C.
Method: In the present invention, the liquefied gas to be blended is characterized by being a poorly water-soluble liquefied gas having solubility in water at 20° C. of less than 10 wt %, preferably less than 5 wt %. When the solubility of the liquefied gas in water is more than 10 wt %, the liquefied gas is hardly emulsified with the concentrate and emulsification stability is apt to be lowered, and therefore, a uniform composition tends to be hardly sprayed. In addition, in the case of blending a gas mixture as the liquefied gas, it is enough for the gas mixture to have properties corresponding to those of a poorly water-soluble liquefied gas.

Row | SMILES | solubility in water [wt %]
1 | COC [dimethyl ether (*17), dimethyl ether] | 33
2 | F/C=C/C(F)(F)F [trans-1,3,3,3-tetrafluoroprop-1-ene] | ≤ 1
